SMILES strings stand for the structures.

The assay deals with T1, human GCS (glucosylceramide synthase) (Homo sapiens, UniProt Q16739).
T1 construct: made in house; host or cells: Expi293F cells (transient expression; microsome fraction)
T1 sequence (Q16739 1-394): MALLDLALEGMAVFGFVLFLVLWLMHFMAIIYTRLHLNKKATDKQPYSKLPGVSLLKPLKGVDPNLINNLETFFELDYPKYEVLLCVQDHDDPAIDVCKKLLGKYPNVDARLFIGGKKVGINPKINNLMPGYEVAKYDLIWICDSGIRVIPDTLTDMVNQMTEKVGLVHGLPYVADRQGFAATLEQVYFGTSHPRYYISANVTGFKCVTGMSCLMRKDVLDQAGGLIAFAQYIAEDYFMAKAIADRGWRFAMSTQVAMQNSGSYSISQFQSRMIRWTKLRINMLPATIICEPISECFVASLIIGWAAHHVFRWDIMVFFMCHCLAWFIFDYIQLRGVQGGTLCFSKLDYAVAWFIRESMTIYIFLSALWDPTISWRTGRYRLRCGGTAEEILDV
Put plainly: Glucosylceramide Synthase (GCS) Assay. The assay is classed as biochemical. As to conditions: test compound 10 μM; microsome fraction of Expi293F cells expressing human GCS; 1.7 μM UDP-glucose, 3 μM C8 ceramide; room temperature 60 min; C8 glucosylceramide by Rapidfire MS/MS; read-out: GCS enzyme inhibitory rate at 10 μM (%). An outline of the steps:
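Test compounds were run at a final 10 μM against liposomal C8 ceramide (3 μM) and UDP-glucose at its Km (1.7 μM). Human GCS came as microsomes from transfected Expi293F cells, incubated 60 min at room temperature, pH 7.5. Product measured by RapidFire MS/MS; 0% and 100% inhibition were DMSO and no-enzyme wells.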
In the case of `COc1cc(F)ccc1-n1cccc(C(=O)Nc2ccn(-c3ccc(F)cc3)n2)c1=O` [Example 8, 1-(4-fluoro-2-methoxyphenyl)-N-[1-(4-fluorophenyl)-1H-pyrazol-3-yl]-2-oxo-1,2-dihydropyridine-3-carboxamide], the inhibition at 10 µM was 66%. With `O=C(Nc1ccc(C(O)(C(F)F)C(F)F)nc1)c1cccn(-c2ccnnc2OCC(F)(F)F)c1=O` [Example 122, 2-oxo-N-[6-(1,1,3,3-tetrafluoro-2-hydroxypropan-2-yl)pyridin-3-yl]-1-[3-(2,2,2-trifluoroethoxy)pyridazin-4-yl]-1,2-dihydropyridine-3-carboxamide], the inhibition at 10 µM is 95%. Then `Cc1cccc(OCC(F)(F)F)c1-n1cccc(C(=O)Nc2ccc(C(C)(C)O)cc2)c1=O` [Example 68, N-[4-(2-hydroxypropan-2-yl)phenyl]-1-[2-methyl-6-(2,2,2-trifluoroethoxy)phenyl]-2-oxo-1,2-dihydropyridine-3-carboxamide], with 97%; and `CC(C)(O)c1ccc(NC(=O)c2cccn(-c3ccc(F)cc3OCC(F)(F)C(F)(F)F)c2=O)cc1` [Example 58, 1-[4-fluoro-2-(2,2,3,3,3-pentafluoropropoxy)phenyl]-N-[4-(2-hydroxypropan-2-yl)phenyl]-2-oxo-1,2-dihydropyridine-3-carboxamide], with 99%. `CCOC(=O)c1ccc(NC(=O)c2cc(C)nn(-c3ccccc3OCC(F)F)c2=O)s1` [Example 170, ethyl 5-({2-[2-(2,2-difluoroethoxy)phenyl]-6-methyl-3-oxo-2,3-dihydropyridazine-4-carbonyl}amino)thiophene-2-carboxylate]: the inhibition at 10 µM was found to be 65%.

Take `O=C(Nc1ccc(C(O)(C(F)F)C(F)F)cc1Cl)c1ccnn(-c2ccccc2OCC(F)F)c1=O` [Example 160, N-[2-chloro-4-(1,1,3,3-tetrafluoro-2-hydroxypropan-2-yl)phenyl]-2-[2-(2,2-difluoroethoxy)phenyl]-3-oxo-2,3-dihydropyridazine-4-carboxamide]: the inhibition at 10 µM amounted to 100%.

`CC(C)(O)c1ccc(NC(=O)c2cccn(-c3ncncc3OCC(F)(F)F)c2=O)cn1` [Example 119, N-[6-(2-hydroxypropan-2-yl)pyridin-3-yl]-2-oxo-1-[5-(2,2,2-trifluoroethoxy)pyrimidin-4-yl]-1,2-dihydropyridine-3-carboxamide]: the inhibition at 10 µM came out at 74%. With `O=C(Nc1ccc(C(O)(C(F)F)C(F)F)cc1)c1ccnn(-c2ccccc2OCC(F)(F)F)c1=O` [Example 155, 3-oxo-N-[4-(1,1,3,3-tetrafluoro-2-hydroxypropan-2-yl)phenyl]-2-[2-(2,2,2-trifluoroethoxy)phenyl]-2,3-dihydropyridazine-4-carboxamide], the inhibition at 10 µM is 100%. In the case of `CC(C)(O)COc1ccc(NC(=O)c2cn(C(F)F)nc(-c3ccccc3OCC(F)F)c2=O)cc1` [Example 165, 6-[2-(2,2-difluoroethoxy)phenyl]-2-(difluoromethyl)-N-[4-(2-hydroxy-2-methylpropoxy)phenyl]-5-oxo-2,5-dihydropyridazine-4-carboxamide], the inhibition at 10 µM turned out to be 98%. Under `Cn1cc(C(=O)Nc2ccc(C(C)(C)O)cc2)c(=O)c(-c2ccccc2OCC(F)F)n1` [Example 158, 6-[2-(2,2-difluoroethoxy)phenyl]-N-[4-(2-hydroxypropan-2-yl)phenyl]-2-methyl-5-oxo-2,5-dihydropyridazine-4-carboxamide] stands 100%.

On to `CC(C)(O)c1ccc(NC(=O)c2ccnn(-c3ccccc3OCC(F)(F)F)c2=O)c(F)c1` [Example 148, N-[2-fluoro-4-(2-hydroxypropan-2-yl)phenyl]-3-oxo-2-[2-(2,2,2-trifluoroethoxy)phenyl]-2,3-dihydropyridazine-4-carboxamide], for which the inhibition at 10 µM is 100%.

Consider `COC(C)(C)c1ccc(NC(=O)c2cccn(-c3ccc(F)cc3OCC(F)(F)F)c2=O)cn1` [Example 91, 1-[4-fluoro-2-(2,2,2-trifluoroethoxy)phenyl]-N-[6-(2-methoxypropan-2-yl)pyridin-3-yl]-2-oxo-1,2-dihydropyridine-3-carboxamide], for which the inhibition at 10 µM turned out to be 89%. Then `COc1cc(F)ccc1-n1cccc(C(=O)Nc2ccc(OC(F)(F)F)cc2)c1=O` [Example 6, 1-(4-fluoro-2-methoxyphenyl)-2-oxo-N-[4-(trifluoromethoxy)phenyl]-1,2-dihydropyridine-3-carboxamide], with 52%; and `N#Cc1ccc(NC(=O)c2cccn(-c3ccccc3OCC(F)(F)F)c2=O)nc1` [Example 31, N-(5-cyanopyridin-2-yl)-2-oxo-1-[2-(2,2,2-trifluoroethoxy)phenyl]-1,2-dihydropyridine-3-carboxamide], with 92%; and `COc1ccc(NC(=O)c2cccn(-c3ccccc3OCC(F)(F)F)c2=O)cn1` [Example 13, N-(6-methoxypyridin-3-yl)-2-oxo-1-[2-(2,2,2-trifluoroethoxy)phenyl]-1,2-dihydropyridine-3-carboxamide], with 96%. Then `COc1cc(F)ccc1-n1cccc(C(=O)Nc2ccc(Oc3ccccc3)cc2)c1=O` [Example 3, 1-(4-fluoro-2-methoxyphenyl)-2-oxo-N-(4-phenoxyphenyl)-1,2-dihydropyridine-3-carboxamide], with 92%; and `COc1cc(F)ccc1-n1cccc(C(=O)Nc2ccc(OC(F)F)nc2)c1=O` [Example 16, N-[6-(difluoromethoxy)pyridin-3-yl]-1-(4-fluoro-2-methoxyphenyl)-2-oxo-1,2-dihydropyridine-3-carboxamide], with 69%. Under `COC(C)(C)c1ccc(NC(=O)c2cccn(-c3ccccc3OCC(F)(F)F)c2=O)cn1` [Example 92, N-[6-(2-methoxypropan-2-yl)pyridin-3-yl]-2-oxo-1-[2-(2,2,2-trifluoroethoxy)phenyl]-1,2-dihydropyridine-3-carboxamide] stands 95%; under `N#Cc1cc(F)ccc1-n1cccc(C(=O)Nc2ccc(C(O)(C(F)(F)F)C(F)(F)F)cc2)c1=O` [Example 104, 1-(2-cyano-4-fluorophenyl)-N-[4-(1,1,1,3,3,3-hexafluoro-2-hydroxypropan-2-yl)phenyl]-2-oxo-1,2-dihydropyridine-3-carboxamide], 95%; under `Cc1cc(NC(=O)c2ccnn(-c3ccccc3OCC(F)F)c2=O)ccc1C(C)(C)O` [Example 142, 2-[2-(2,2-difluoroethoxy)phenyl]-N-[4-(2-hydroxypropan-2-yl)-3-methylphenyl]-3-oxo-2,3-dihydropyridazine-4-carboxamide], 98%.

On to `N#Cc1ccc(NC(=O)c2cccn(-c3ccccc3OCC(F)(F)F)c2=O)cn1` [Example 24, N-(6-cyanopyridin-3-yl)-2-oxo-1-[2-(2,2,2-trifluoroethoxy)phenyl]-1,2-dihydropyridine-3-carboxamide], for which the inhibition at 10 µM was determined as 98%. For the compound `Cn1cc(C(=O)Nc2ccc(C(O)(C(F)F)C(F)F)cc2)c(=O)c(-c2ccccc2OCC(F)F)n1` [Example 159, 6-[2-(2,2-difluoroethoxy)phenyl]-2-methyl-5-oxo-N-[4-(1,1,3,3-tetrafluoro-2-hydroxypropan-2-yl)phenyl]-2,5-dihydropyridazine-4-carboxamide], the inhibition at 10 µM was 100%. `O=C(Nc1ccc(COCC(F)(F)F)nc1)c1cccn(-c2ccc(F)cc2OCC(F)(F)F)c1=O` [Example 73, 1-[4-fluoro-2-(2,2,2-trifluoroethoxy)phenyl]-2-oxo-N-{6-[(2,2,2-trifluoroethoxy)methyl]pyridin-3-yl}-1,2-dihydropyridine-3-carboxamide]: the inhibition at 10 µM is 99%. Under `COc1cc(F)ccc1-n1cccc(C(=O)Nc2ccc(C(F)(F)F)cc2)c1=O` [Example 11, 1-(4-fluoro-2-methoxyphenyl)-2-oxo-N-[4-(trifluoromethyl)phenyl]-1,2-dihydropyridine-3-carboxamide] stands 88%.

With `O=C(Nc1ccc(OCC(F)(F)F)nc1)c1cccn(-c2ccc(F)cc2OCC(F)(F)C(F)(F)F)c1=O` [Example 56, 1-[4-fluoro-2-(2,2,3,3,3-pentafluoropropoxy)phenyl]-2-oxo-N-[6-(2,2,2-trifluoroethoxy)pyridin-3-yl]-1,2-dihydropyridine-3-carboxamide], the inhibition at 10 µM came to 100%. Regarding `O=C(Nc1ccc(C(O)(C(F)F)C(F)F)nc1)c1cccn(-c2cccnc2OCC(F)(F)F)c1=O` [Example 123, 2-oxo-N-[6-(1,1,3,3-tetrafluoro-2-hydroxypropan-2-yl)pyridin-3-yl]-2′-(2,2,2-trifluoroethoxy)-2H-[1,3′-bipyridine]-3-carboxamide], the inhibition at 10 µM was 99%. On to `CC(C)(O)c1ccc(NC(=O)c2cn(C3CC3)nc(-c3ccccc3OCC(F)F)c2=O)cc1` [Example 169, 2-cyclopropyl-6-[2-(2,2-difluoroethoxy)phenyl]-N-[4-(2-hydroxypropan-2-yl)phenyl]-5-oxo-2,5-dihydropyridazine-4-carboxamide], for which the inhibition at 10 µM is 100%.

The values above are taken from US20220289679A1, “HETEROCYCLIC COMPOUND” (Takeda Pharmaceutical Company Limited, priority 2019, published 2022).
